Target: IRAK4 kinase (Homo sapiens (Human), UniProt Q9NWZ3)
Experiment: IRAK4 kinase activity inhibition assay (ADP-Glo)
Assay type: biochemical
Conditions: 10 μM ATP, MBP substrate, 60 min at 25° C.
Protocol: IRAK4 kinase (purchased from Life Technologies, Cat. No.: PR5612U) was diluted to 2 folds of the final concentration (the final concentration is 0.76 ng/μL) with reaction buffer (40 mM Tris-HCl, pH 7.5; 20 mM MgCl2; 0.1 mg/mL BSA; 1 mM DTT), and added to a 384-well plate at 5 μL/well. The test drugs were 10-fold serial diluted from 10 μM to set six concentration points and added to the test wells of the 384-well plate at 2.5 μL/well. After incubation for 10 min at 25° C., 10 μM of ATP and […] of an enzyme reaction substrate, myelin basic protein MBP (purchased from SignalChem, Cat. No.: M42-51N) were added at 2.5 µL/well, and reacted at 25° C. for 60 minutes. After the reaction was completed, the kinase activity assay was performed using the ADP-Glo™ kinase assay kit (purchased from Promega, Cat. No.: V9102) according to the manufacture's instruction, i.e., 10 μL of ADP-Glo reaction reagent was first added and reacted at 25° C. for 40 minutes, 10 μL of the solution to be tested was taken and mixed with 10 μL of ADP-Glo detection reagent, and reacted at 25° C. for 30 minutes. The kinase activity was then detected, and the IC50 values of the test drugs were calculated.

Chain of IRAK4 kinase (Q9NWZ3 whole entry): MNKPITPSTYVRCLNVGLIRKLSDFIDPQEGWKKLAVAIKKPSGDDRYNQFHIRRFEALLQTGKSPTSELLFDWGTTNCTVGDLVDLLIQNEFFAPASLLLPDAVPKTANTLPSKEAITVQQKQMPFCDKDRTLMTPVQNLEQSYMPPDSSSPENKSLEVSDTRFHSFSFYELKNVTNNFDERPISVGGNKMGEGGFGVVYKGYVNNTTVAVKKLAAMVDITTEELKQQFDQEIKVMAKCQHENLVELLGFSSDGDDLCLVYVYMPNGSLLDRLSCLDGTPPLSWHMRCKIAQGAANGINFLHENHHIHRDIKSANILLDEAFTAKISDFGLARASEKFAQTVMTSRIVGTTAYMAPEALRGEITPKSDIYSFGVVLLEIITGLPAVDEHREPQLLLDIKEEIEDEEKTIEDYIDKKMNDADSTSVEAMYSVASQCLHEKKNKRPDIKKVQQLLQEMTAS

| SMILES | IC50 |
| --- | --- |
| Cc1cc(Nc2nc(N[C@H]3C[C@@](C)(O)C3)c3sccc3n2)sn1 [Compound 3] | ≤ 100 nM |
| Cc1cc(Nc2nc(N[C@H]3CC[C@@H](O)C3)c3sccc3n2)sn1 [Compound 4] | ≤ 100 nM |
| Cc1cc(Nc2nc(N[C@H]3CC[C@H](O)C3)c3sccc3n2)sn1 [Compound 5] | 100 to 1000 nM |
| Cc1cc(Nc2nc(NC3CCC(C)(O)C3)c3sccc3n2)sn1 (stereo not drawn) [Compound 6] | 100 to 1000 nM |
| Cc1cc(Nc2nc(N[C@H]3CC[C@@H](O)CC3)c3sccc3n2)sn1 [Compound 8] | ≤ 100 nM |
| Cc1cc(Nc2nc(NC3CCC(CO)CC3)c3sccc3n2)sn1 (stereo not drawn) [Compound 10] | ≤ 100 nM |
| Cc1cc(Nc2nc(NC3CCC(C(N)=O)CC3)c3sccc3n2)sn1 (stereo not drawn) [Compound 13] | 100 to 1000 nM |
| Cc1cc(Nc2nc(O[C@H]3CC[C@H](O)CC3)c3sccc3n2)sn1 [Compound 15] | 100 to 1000 nM |
| Cn1cc(Nc2nc(N[C@H]3CC[C@H](O)CC3)c3sccc3n2)cn1 [Compound 18] | ≤ 100 nM |
| O[C@H]1CC[C@H](Nc2nc(Nc3cnoc3)nc3ccsc23)CC1 [Compound 19] | 100 to 1000 nM |
| COc1cc(Nc2nc(N[C@@H]3C[C@H](CO)[C@@H](O)[C@H]3O)c3sccc3n2)ccn1 [Compound 20] | ≤ 100 nM |
| O[C@H]1CC[C@H](Nc2nc(Nc3ccncc3)nc3ccsc23)CC1 [Compound 21] | 1000 to 10000 nM |
| Cc1cc(Nc2nc(N(C)C3CCC(C)(O)CC3)c3sccc3n2)sn1 (stereo not drawn) [Compound 24, 1-methyl-4-(methyl(2-((3-methylisothiazol-5-yl)amino)thieno[3,2-d]pyrimidin-4-yl)amino)cyclohexanol] | 1000 to 10000 nM |
| O[C@H]1CC[C@H](Nc2nc(Nc3cnn(-c4ccccc4)c3)nc3ccsc23)CC1 [Compound 25, trans-4-((2-((1-phenyl-1H-pyrazol-4-yl)amino)thieno[3,2-d]pyrimidin-4-yl)amino)cyclohexanol] | ≤ 100 nM |
| O[C@H]1CC[C@H](Nc2nc(Nc3cnn(C4CCCNC4)c3)nc3ccsc23)CC1 (stereo partly drawn) [Compound 28] | ≤ 100 nM |
| Oc1cccc(-n2cc(Nc3nc(N[C@H]4CC[C@H](O)CC4)c4sccc4n3)cn2)c1 [Compound 30] | 100 to 1000 nM |
| Oc1ccc(-n2cc(Nc3nc(N[C@H]4CC[C@H](O)CC4)c4sccc4n3)cn2)cc1 [Compound 31] | 100 to 1000 nM |
| O[C@H]1CC[C@H](Nc2nc(Nc3cnn(-c4cccc(N5CCOCC5)c4)c3)nc3ccsc23)CC1 [Compound 34] | 100 to 1000 nM |
| O[C@H]1CC[C@H](Nc2nc(Nc3cnn(-c4ccc(N5CCOCC5)cc4)c3)nc3ccsc23)CC1 [Compound 35] | 100 to 1000 nM |
| O[C@H]1CC[C@H](Nc2nc(Nc3cnn(-c4cccnc4)c3)nc3ccsc23)CC1 [Compound 37] | ≤ 100 nM |

| SMILES | IC50 |
| --- | --- |
| O[C@H]1CC[C@H](Nc2nc(Nc3cnn(-c4ccncc4)c3)nc3ccsc23)CC1 [Compound 38] | ≤ 100 nM |
| O[C@H]1CC[C@H](Nc2nc(Nc3cnn(-c4cncnc4)c3)nc3ccsc23)CC1 [Compound 40] | 100 to 1000 nM |
| Cc1cc(-n2cc(Nc3nc(N[C@H]4CC[C@H](O)CC4)c4sccc4n3)cn2)ccn1 [Compound 43] | 100 to 1000 nM |
| C[C@]1(O)CC[C@H](Nc2nc(Nc3cnn(C(=O)CC4CCNCC4)c3)nc3ccsc23)CC1 [Compound 44] | 100 to 1000 nM |
| CN1CCN(C(=O)c2cc(Nc3nc(N[C@H]4CC[C@H](O)CC4)c4sccc4n3)sn2)CC1 [Compound 45, (5-((4-((trans-4-hydroxycyclohexyl)amino)thieno[3,2-d]pyrimidin-2-yl)amino)isothiazol-3-yl)(4-methylpiperazin-1-yl)methanone] | 100 to 1000 nM |
| COCCNC(=O)c1csc(Nc2nc(N[C@H]3CC[C@](C)(O)CC3)c3sccc3n2)c1 [Compound 46] | 100 to 1000 nM |
| C[C@]1(O)CC[C@H](Nc2nc(Nc3cc(C(=O)N[C@H]4CCNC4)cs3)nc3ccsc23)CC1 [Compound 47] | ≤ 100 nM |
| C[C@]1(O)CC[C@H](Nc2nc(Nc3cc(C(=O)NC4CCNCC4)cs3)nc3ccsc23)CC1 [Compound 49] | 100 to 1000 nM |
| C[C@]1(O)CC[C@H](Nc2nc(Nc3cc(C(=O)NC4CCNCC4)n[nH]3)nc3ccsc23)CC1 [Compound 51] | 1000 to 10000 nM |
| C[C@]1(O)CC[C@H](Nc2nc(Nc3cc(C(=O)N[C@@H]4CCNC4)ns3)nc3ccsc23)CC1 [Compound 55] | ≤ 100 nM |
| C[C@]1(O)CC[C@H](Nc2nc(Nc3cc(C(=O)N[C@@H]4CCCNC4)ns3)nc3ccsc23)CC1 [Compound 56] | ≤ 100 nM |
| C[C@]1(O)CC[C@H](Nc2nc(Nc3cc(C(=O)NC4CCNCC4)ns3)nc3ccsc23)CC1 [Compound 58] | ≤ 100 nM |
| CC(=O)N1CCC(NC(=O)c2cc(Nc3nc(N[C@H]4CC[C@](C)(O)CC4)c4sccc4n3)sn2)CC1 [Compound 60] | 100 to 1000 nM |
| C[C@]1(O)CC[C@H](Nc2nc(Nc3cc(C(=O)Nc4ccccc4)ns3)nc3ccsc23)CC1 [Compound 61] | 1000 to 10000 nM |
| C[C@]1(O)CC[C@H](Nc2nc(Nc3cc(C(=O)Nc4cccnc4)ns3)nc3ccsc23)CC1 [Compound 62] | 100 to 1000 nM |
| C[C@]1(O)CC[C@H](Nc2nc(Nc3cc(C(=O)Nc4ccncc4)ns3)nc3ccsc23)CC1 [Compound 63] | 100 to 1000 nM |
| C[C@]1(O)CC[C@H](Nc2nc(Nc3ccc(C(=O)N[C@@H]4CCNC4)cc3)nc3ccsc23)CC1 [Compound 64] | 100 to 1000 nM |
| C[C@]1(O)CC[C@H](Nc2nc(Nc3cccc(C(=O)NC4CCNCC4)c3)nc3ccsc23)CC1 [Compound 65] | 100 to 1000 nM |
| CN(C)C1CCN(C(=O)c2ccc(Nc3nc(N[C@H]4CC[C@H](O)CC4)c4sccc4n3)cc2)CC1 [Compound 68] | 100 to 1000 nM |
| O[C@H]1CC[C@H](Nc2nc(Nc3ccc(OC4CCOC4)cc3)nc3ccsc23)CC1 (stereo partly drawn) [Compound 69, trans-4-((2-((4-((tetrahydrofuran-3-yl)oxy)phenyl)amino)thieno[3,2-d]pyrimidin-4-yl)amino)cyclohexanol] | 100 to 1000 nM |

Results, then the compound that gave them:

| IC50 | SMILES |
| --- | --- |
| ≤ 100 nM | Cc1cc(Nc2nc(N[C@H]3CC[C@H](O)CC3)c3sccc3n2)sn1 [Compound 1, trans-4-((2-((3-methylisothiazol-5-yl)amino)thieno[3,2-d]pyrimidin-4-yl)amino)cyclohexanol] |
| ≤ 100 nM | Cc1cc(Nc2nc(NC3CC(O)C3)c3sccc3n2)sn1 (stereo not drawn) [Compound 2] |
| ≤ 100 nM | Cc1cc(Nc2nc(N[C@@H]3C[C@H](CO)[C@@H](O)[C@H]3O)c3sccc3n2)sn1 [Compound 7] |
| 100 to 1000 nM | Cc1cc(Nc2nc(NC3CCC(O)C(C)C3)c3sccc3n2)sn1 (stereo not drawn) [Compound 11] |
| 100 to 1000 nM | CCC1(O)CCC(Nc2nc(Nc3cc(C)ns3)nc3ccsc23)CC1 (stereo not drawn) [Compound 12] |
| ≤ 100 nM | Cc1cc(Nc2nc(N[C@@H]3CC[C@H](O)[C@@H](O)C3)c3sccc3n2)sn1 [Compound 14] |
| 100 to 1000 nM | CO[C@H]1CC[C@H](Nc2nc(Nc3cc(C)ns3)nc3ccsc23)CC1 [Compound 16] |
| 100 to 1000 nM | Cc1cc(Nc2nc(N[C@H]3CC[C@H](O)CC3)c3sccc3n2)on1 [Compound 17] |
| 100 to 1000 nM | Cc1cc(Nc2nc(N[C@H]3CC[C@](C)(O)CC3)c3sccc3n2)cc(C)n1 [Compound 22] |
| 100 to 1000 nM | COc1cc(Nc2nc(N[C@H]3CC[C@](C)(O)CC3)c3sccc3n2)ccn1 [Compound 23] |
| ≤ 100 nM | OCCn1cc(Nc2nc(N[C@H]3CC[C@H](O)CC3)c3sccc3n2)cn1 [Compound 26] |
| 100 to 1000 nM | O[C@H]1CC[C@H](Nc2nc(Nc3cnn(C4CCCC4)c3)nc3ccsc23)CC1 [Compound 27] |
| 100 to 1000 nM | Oc1ccccc1-n1cc(Nc2nc(N[C@H]3CC[C@H](O)CC3)c3sccc3n2)cn1 [Compound 29] |
| 100 to 1000 nM | O[C@H]1CC[C@H](Nc2nc(Nc3cnn(-c4ccccn4)c3)nc3ccsc23)CC1 [Compound 36] |
| 100 to 1000 nM | O[C@H]1CC[C@H](Nc2nc(Nc3cnn(-c4ccncn4)c3)nc3ccsc23)CC1 [Compound 39] |
| 1000 to 10000 nM | Cc1ncccc1-n1cc(Nc2nc(N[C@H]3CC[C@H](O)CC3)c3sccc3n2)cn1 [Compound 41] |
| 100 to 1000 nM | Cc1cncc(-n2cc(Nc3nc(N[C@H]4CC[C@H](O)CC4)c4sccc4n3)cn2)c1 [Compound 42] |
| ≤ 100 nM | C[C@]1(O)CC[C@H](Nc2nc(Nc3cc(C(=O)N[C@@H]4CCNC4)cs3)nc3ccsc23)CC1 [Compound 48] |
| 100 to 1000 nM | CN1CCN(C(=O)c2csc(Nc3nc(N[C@H]4CC[C@](C)(O)CC4)c4sccc4n3)c2)CC1 [Compound 50] |
| ≤ 100 nM | C[C@]1(O)CC[C@H](Nc2nc(Nc3cc(C(=O)NCCCO)ns3)nc3ccsc23)CC1 [Compound 52] |
| 100 to 1000 nM | COCCNC(=O)c1cc(Nc2nc(N[C@H]3CC[C@](C)(O)CC3)c3sccc3n2)sn1 [Compound 53] |
| ≤ 100 nM | C[C@]1(O)CC[C@H](Nc2nc(Nc3cc(C(=O)NCC4CCNCC4)ns3)nc3ccsc23)CC1 [Compound 54] |
| ≤ 100 nM | C[C@]1(O)CC[C@H](Nc2nc(Nc3cc(C(=O)NC4CCOCC4)ns3)nc3ccsc23)CC1 [Compound 57] |
| ≤ 100 nM | CN1CCC(NC(=O)c2cc(Nc3nc(N[C@H]4CC[C@](C)(O)CC4)c4sccc4n3)sn2)CC1 [Compound 59] |
| 100 to 1000 nM | C[C@]1(O)CC[C@H](Nc2nc(Nc3ccc(C(=O)NC4CCNCC4)cc3)nc3ccsc23)CC1 [Compound 66] |
| 100 to 1000 nM | CNC1CCN(C(=O)c2ccc(Nc3nc(N[C@H]4CC[C@H](O)CC4)c4sccc4n3)cc2)CC1 [Compound 67] |
